The values below come from ChEMBL document CHEMBL1156331, “7-Phenylplatensimycin and 11-methyl-7-phenylplatensimycin: more potent analogs of platensimycin” (2010).

Common to all, as to assay type: functional
For assay [1], the system named is Staphylococcus aureus. The experiment in a line: Antimicrobial activity against methicillin-sensitive Staphylococcus aureus isolate 4.
For assay [2], the system named is Enterococcus faecalis. In words: Antimicrobial activity against vancomycin-resistant Enterococcus faecalis isolate 12.
Assay [3] deals with Staphylococcus aureus. In words: Antimicrobial activity against vancomycin-insensitive Staphylococcus aureus isolate 10.
For assay [4], the system named is Staphylococcus aureus. In words: Antimicrobial activity against methicillin-sensitive Staphylococcus aureus isolate 2.
Assay [5] relates to Staphylococcus aureus. In words: Antimicrobial activity against methicillin-resistant Staphylococcus aureus isolate 8.
Assay [6] concerns Staphylococcus aureus. In words: Antimicrobial activity against methicillin-resistant Staphylococcus aureus isolate 6.
In assay [7] the test system is Staphylococcus aureus. In words: Antimicrobial activity against vancomycin-insensitive Staphylococcus aureus isolate 9.
The test system of assay [8] is Enterococcus faecalis. In words: Antimicrobial activity against vancomycin-resistant Enterococcus faecalis isolate 13.
Assay [9] concerns Enterococcus faecalis. The experiment in a line: Antimicrobial activity against vancomycin-sensitive Enterococcus faecalis isolate 11.
Assay [10] relates to Enterococcus faecium. The experiment in a line: Antimicrobial activity against vancomycin-resistant Enterococcus faecium isolate 15.
For assay [11], the system named is Enterococcus faecium. In words: Antimicrobial activity against vancomycin-resistant Enterococcus faecium isolate 14.
Assay [12] deals with Staphylococcus aureus. The experiment in a line: Antimicrobial activity against methicillin-resistant Staphylococcus aureus isolate 7.
The subject of assay [13] is Staphylococcus aureus. In words: Antimicrobial activity against methicillin-resistant Staphylococcus aureus isolate 5.
The test system of assay [14] is Staphylococcus aureus. In words: Antimicrobial activity against methicillin-sensitive Staphylococcus aureus isolate 1.
Assay [15] has as its system Staphylococcus aureus. In words: Antimicrobial activity against methicillin-sensitive Staphylococcus aureus isolate 3.

≈ marks a conversion by molar mass, not a printed value. Bounds are passed on as bounds.

For the molecule `CC12CC34C=CC(=O)C(C)(CCC(=O)Nc5c(O)ccc(C(=O)O)c5O)C3C(O1)[C@@H](Cl)C2C4` (stereo partly drawn), the minimal inhibitory concentration (MIC) in the assay with Staphylococcus aureus [1] came out at 0.5 µg/mL (≈ 1.05 µM); in the assay with Enterococcus faecalis [2] it was 64 µg/mL (≈ 134 µM); with Staphylococcus aureus [3], 8 µg/mL (≈ 16.8 µM); against Staphylococcus aureus [4], 8 µg/mL (≈ 16.8 µM); in the assay with Staphylococcus aureus [5], 4 µg/mL (≈ 8.4 µM); against Staphylococcus aureus [6], 0.5 µg/mL (≈ 1.05 µM). In addition, the MIC in the assay with Staphylococcus aureus [7] was 8 µg/mL (≈ 16.8 µM); against Enterococcus faecalis [8] it was 64 µg/mL (≈ 134 µM); with Enterococcus faecalis [9], 2 µg/mL (≈ 4.2 µM); in the assay with Enterococcus faecium [10], 2 µg/mL (≈ 4.2 µM); against Enterococcus faecium [11], 8 µg/mL (≈ 16.8 µM); against Staphylococcus aureus [12] it was 0.25 µg/mL (≈ 0.525 µM). The MIC in the assay on Staphylococcus aureus [13] stood at 0.25 µg/mL (≈ 0.525 µM); with Staphylococcus aureus [14] it was 1 µg/mL (≈ 2.1 µM); against Staphylococcus aureus [15] it was 8 µg/mL (≈ 16.8 µM).
With `CC12C[C@@]34C=CC(=O)[C@@](C)(CCC(=O)Nc5c(O)ccc(C(=O)O)c5O)C3[C@H](CC1C4)O2` (stereo partly drawn) [PLATENSIMYCIN], the MIC in the assay with Staphylococcus aureus [1] was < 0.25 µg/mL; with Enterococcus faecalis [2], 8 µg/mL (≈ 18.1 µM); against Staphylococcus aureus [3] it was 2 µg/mL (≈ 4.53 µM); with Staphylococcus aureus [4] it was 2 µg/mL (≈ 4.53 µM); in the assay with Staphylococcus aureus [5] it was 1 µg/mL (≈ 2.27 µM); against Staphylococcus aureus [6], 0.25 µg/mL (≈ 0.566 µM). Besides, the MIC in the assay with Staphylococcus aureus [7] was 2 µg/mL (≈ 4.53 µM); in the assay on Enterococcus faecalis [8] it was 8 µg/mL (≈ 18.1 µM); against Enterococcus faecalis [9] it was ≤ 0.5 µg/mL; with Enterococcus faecium [10], ≤ 0.5 µg/mL; in the assay with Enterococcus faecium [11], ≤ 0.5 µg/mL; with Staphylococcus aureus [12], 0.25 µg/mL (≈ 0.566 µM). The MIC against Staphylococcus aureus [13] came out at 0.25 µg/mL (≈ 0.566 µM); in the assay on Staphylococcus aureus [14], 1 µg/mL (≈ 2.27 µM); in the assay on Staphylococcus aureus [15] it was 8 µg/mL (≈ 18.1 µM).
Regarding `C[C@@H]1C2OC3(C)CC4(C=CC(=O)C(C)(CCC(=O)Nc5c(O)ccc(C(=O)O)c5O)C24)CC13` (stereo partly drawn), the MIC is < 0.25 µg/mL against Staphylococcus aureus [1]; 32 µg/mL (≈ 70.3 µM) in the assay on Enterococcus faecalis [2]; 8 µg/mL (≈ 17.6 µM) in the assay with Staphylococcus aureus [3]; 1 µg/mL (≈ 2.2 µM) with Staphylococcus aureus [4]; 1 µg/mL (≈ 2.2 µM) against Staphylococcus aureus [5]; 0.5 µg/mL (≈ 1.1 µM) with Staphylococcus aureus [6]. For the same molecule, the MIC in the assay with Staphylococcus aureus [7] was 2 µg/mL (≈ 4.39 µM); against Enterococcus faecalis [8], 64 µg/mL (≈ 141 µM); against Enterococcus faecalis [9], 1 µg/mL (≈ 2.2 µM); with Enterococcus faecium [10] it was 1 µg/mL (≈ 2.2 µM); in the assay with Enterococcus faecium [11], 2 µg/mL (≈ 4.39 µM); in the assay on Staphylococcus aureus [12], 0.5 µg/mL (≈ 1.1 µM). The MIC in the assay with Staphylococcus aureus [13] came to 0.25 µg/mL (≈ 0.549 µM); in the assay on Staphylococcus aureus [14], 0.25 µg/mL (≈ 0.549 µM); in the assay with Staphylococcus aureus [15], 8 µg/mL (≈ 17.6 µM).
For `CC1(CCC(=O)Nc2c(O)ccc(C(=O)O)c2O)C(=O)C=CC23CC4CC(OC4(c4ccccc4)C2)C31` (stereo not drawn), the MIC in the assay with Staphylococcus aureus [1] was determined as 1 µg/mL (≈ 1.99 µM); in the assay with Enterococcus faecalis [2], 16 µg/mL (≈ 31.8 µM); against Staphylococcus aureus [3] it was 16 µg/mL (≈ 31.8 µM); against Staphylococcus aureus [4], 8 µg/mL (≈ 15.9 µM); in the assay on Staphylococcus aureus [5] it was 4 µg/mL (≈ 7.94 µM); with Staphylococcus aureus [6], 2 µg/mL (≈ 3.97 µM). The minimal inhibitory concentration (MIC) in the assay with Staphylococcus aureus [7] is 16 µg/mL (≈ 31.8 µM); in the assay with Enterococcus faecalis [8], 16 µg/mL (≈ 31.8 µM); with Enterococcus faecalis [9], ≤ 0.5 µg/mL; in the assay with Enterococcus faecium [10], ≤ 0.5 µg/mL; in the assay with Enterococcus faecium [11] it was 8 µg/mL (≈ 15.9 µM); with Staphylococcus aureus [12] it was 2 µg/mL (≈ 3.97 µM). Moreover, the minimal inhibitory concentration (MIC) in the assay with Staphylococcus aureus [13] was 1 µg/mL (≈ 1.99 µM); against Staphylococcus aureus [14], 2 µg/mL (≈ 3.97 µM); against Staphylococcus aureus [15] it was 8 µg/mL (≈ 15.9 µM).
Regarding `CN[C@H](CC(C)C)C(=O)N[C@H]1C(=O)N[C@@H](CC(N)=O)C(=O)N[C@H]2C(=O)N[C@H]3C(=O)N[C@H](C(=O)N[C@H](C(=O)O)c4cc(O)cc(O)c4-c4cc3ccc4O)[C@H](O)c3ccc(c(Cl)c3)Oc3cc2cc(c3O[C@@H]2O[C@H](CO)[C@@H](O)[C@H](O)[C@H]2O[C@H]2C[C@](C)(N)[C@H](O)[C@H](C)O2)Oc2ccc(cc2Cl)[C@H]1O` [VANCOMYCIN], the minimal inhibitory concentration (MIC) against Enterococcus faecalis [9] is 2 µg/mL (≈ 1.38 µM); against Enterococcus faecium [10] it was > 128 µg/mL; against Enterococcus faecium [11], > 128 µg/mL.
In the case of `CC12CC34C=CC(=O)C(C)(CCC(=O)Nc5c(O)ccc(C(=O)O)c5O)C3C(O1)[C@@H](Br)C2C4` (stereo partly drawn), the MIC with Staphylococcus aureus [1] was 1 µg/mL (≈ 1.92 µM); against Enterococcus faecalis [2], 128 µg/mL (≈ 246 µM); in the assay with Staphylococcus aureus [3], 16 µg/mL (≈ 30.7 µM); against Staphylococcus aureus [4], 8 µg/mL (≈ 15.4 µM); in the assay with Staphylococcus aureus [5], 4 µg/mL (≈ 7.69 µM); with Staphylococcus aureus [6] it was 2 µg/mL (≈ 3.84 µM). Besides, the minimal inhibitory concentration (MIC) is 8 µg/mL (≈ 15.4 µM) with Staphylococcus aureus [7]; > 128 µg/mL in the assay on Enterococcus faecalis [8]; 4 µg/mL (≈ 7.69 µM) in the assay with Enterococcus faecalis [9]; 16 µg/mL (≈ 30.7 µM) in the assay on Enterococcus faecium [10]; 4 µg/mL (≈ 7.69 µM) in the assay with Enterococcus faecium [11]; 1 µg/mL (≈ 1.92 µM) in the assay on Staphylococcus aureus [12]. The minimal inhibitory concentration (MIC) against Staphylococcus aureus [13] came out at 1 µg/mL (≈ 1.92 µM); with Staphylococcus aureus [14], 1 µg/mL (≈ 1.92 µM); in the assay with Staphylococcus aureus [15] it was 32 µg/mL (≈ 61.5 µM).
As for `CC12CC34CC1CC(O2)C3C(C)(CCC(=O)Nc1c(O)ccc(C(=O)O)c1O)C(=O)C=C4c1ccccc1` (stereo not drawn), the minimal inhibitory concentration (MIC) in the assay with Staphylococcus aureus [1] is < 0.25 µg/mL; with Enterococcus faecalis [2], 8 µg/mL (≈ 15.5 µM); against Staphylococcus aureus [3] it was 1 µg/mL (≈ 1.93 µM); against Staphylococcus aureus [4] it was 0.5 µg/mL (≈ 0.966 µM); with Staphylococcus aureus [5], 0.5 µg/mL (≈ 0.966 µM); with Staphylococcus aureus [6], < 0.25 µg/mL. In addition, the minimum inhibitory concentration (MIC) with Staphylococcus aureus [7] is 1 µg/mL (≈ 1.93 µM); against Enterococcus faecalis [8] it was 16 µg/mL (≈ 30.9 µM); against Enterococcus faecalis [9], ≤ 0.5 µg/mL; in the assay with Enterococcus faecium [10] it was ≤ 0.5 µg/mL; in the assay with Enterococcus faecium [11], 2 µg/mL (≈ 3.86 µM); against Staphylococcus aureus [12], < 0.25 µg/mL. Further, the MIC was < 0.25 µg/mL against Staphylococcus aureus [13], 0.25 µg/mL (≈ 0.483 µM) in the assay with Staphylococcus aureus [14] and 2 µg/mL (≈ 3.86 µM) with Staphylococcus aureus [15].
In the case of `C[C@@H]1C2OC3(C)CC4(CC13)C(c1ccccc1)=CC(=O)C(C)(CCC(=O)Nc1c(O)ccc(C(=O)O)c1O)C24` (stereo partly drawn), the MIC in the assay on Staphylococcus aureus [1] was < 0.25 µg/mL; in the assay on Enterococcus faecalis [2] it was 16 µg/mL (≈ 30.1 µM); against Staphylococcus aureus [3], 4 µg/mL (≈ 7.52 µM); against Staphylococcus aureus [4], 0.5 µg/mL (≈ 0.941 µM); in the assay with Staphylococcus aureus [5] it was < 0.25 µg/mL; with Staphylococcus aureus [6], < 0.25 µg/mL. In addition, the MIC against Staphylococcus aureus [7] was 1 µg/mL (≈ 1.88 µM); against Enterococcus faecalis [8] it was 8 µg/mL (≈ 15 µM); against Enterococcus faecalis [9], 8 µg/mL (≈ 15 µM); in the assay on Enterococcus faecium [10] it was ≤ 0.5 µg/mL; against Enterococcus faecium [11], 2 µg/mL (≈ 3.76 µM); in the assay on Staphylococcus aureus [12], < 0.25 µg/mL. Besides, the minimum inhibitory concentration (MIC) in the assay on Staphylococcus aureus [13] is < 0.25 µg/mL; with Staphylococcus aureus [14] it was < 0.25 µg/mL; against Staphylococcus aureus [15] it was 0.5 µg/mL (≈ 0.941 µM).
As to `CC1=CC(=O)C(C)(CCC(=O)Nc2c(O)ccc(C(=O)O)c2O)C2C3CC4CC12CC4(C)O3` (stereo not drawn), the minimum inhibitory concentration (MIC) in the assay with Staphylococcus aureus [1] was found to be 0.5 µg/mL (≈ 1.1 µM); in the assay with Enterococcus faecalis [2], 8 µg/mL (≈ 17.6 µM); in the assay with Staphylococcus aureus [3], 4 µg/mL (≈ 8.78 µM); in the assay on Staphylococcus aureus [4], 4 µg/mL (≈ 8.78 µM); against Staphylococcus aureus [5], 2 µg/mL (≈ 4.39 µM); in the assay on Staphylococcus aureus [6], 0.5 µg/mL (≈ 1.1 µM). The minimum inhibitory concentration (MIC) against Staphylococcus aureus [7] was 4 µg/mL (≈ 8.78 µM); in the assay on Enterococcus faecalis [8], 16 µg/mL (≈ 35.1 µM); in the assay with Enterococcus faecalis [9] it was ≤ 0.5 µg/mL; with Enterococcus faecium [10], ≤ 0.5 µg/mL; in the assay with Enterococcus faecium [11], 2 µg/mL (≈ 4.39 µM); against Staphylococcus aureus [12], 0.25 µg/mL (≈ 0.549 µM). For the same molecule, the minimum inhibitory concentration (MIC) in the assay on Staphylococcus aureus [13] amounted to 1 µg/mL (≈ 2.2 µM); in the assay with Staphylococcus aureus [14], 0.5 µg/mL (≈ 1.1 µM); against Staphylococcus aureus [15], 2 µg/mL (≈ 4.39 µM).
Turning to `Cc1onc(-c2ccccc2)c1C(=O)N[C@@H]1C(=O)N2[C@@H]1SC(C)(C)[C@@H]2C(=O)O` [OXACILLIN], the MIC with Staphylococcus aureus [1] is < 0.25 µg/mL; in the assay on Staphylococcus aureus [3], > 32 µg/mL; with Staphylococcus aureus [4], < 0.25 µg/mL; against Staphylococcus aureus [5], > 32 µg/mL; in the assay with Staphylococcus aureus [6], > 32 µg/mL; in the assay on Staphylococcus aureus [7], > 32 µg/mL. The MIC is > 32 µg/mL with Staphylococcus aureus [12], > 32 µg/mL against Staphylococcus aureus [13], < 0.25 µg/mL in the assay with Staphylococcus aureus [14] and < 0.25 µg/mL in the assay on Staphylococcus aureus [15].

A word on the MIC: it is the lowest concentration that inhibits growth of the organism. Read a low MIC as greater potency.
